The subject of test [1] is primary keratinocytes stimulated by polyinosinic:polycytidylic acid. Nature of the test: Cellular activity broad panel: reduction of cytokine/chemokine levels in stimulated primary keratinocytes. Particulars: Homo sapiens, Keratinocyte. The format is cell-based. On the procedure:
• 1. Seed Primary Human Keratinocytes cells (PHK) at 9000 cells/well in a flat bottom 96 well plate. • 2. […] Cells are cultured for 24 hr prior to TLR ligand stimulation (polyinosinic:polycytidylic acid). • 4. Cells are treated with 20 μg/mL polyinosinic:polycytidylic acid for 48 hrs in 180 μL of media and treated for different compounds or controls. • 5. Supernatant is collected and Chemokine and Cytokines analysis is performed by Magpix-Luminex. Immunoassay Procedure Day 1 • 1. Add 200 μL of Assay Buffer per well. Shake 10 min, RT. Decant. • 2. Add 25 μL of Standard or Control to the appropriate wells. • 3. Add 25 μL of Assay Buffer to background and sample wells. • 4. Add 25 μL of cell media to background, standard and control wells. • 5. Add 25 μL neat samples to sample wells. • 6. Add 25 μL of Beads to each well. • 7. Incubate overnight (16-18 hr) at 4° C. Day 2 • 8. Remove well contents and wash 2× with 200 μL Wash buffer. • 9. Add 25 μL of Detection Antibodies per well. • 10. Incubate 1 hr at RT (20-25° C.). • 11. […] Incubate for 30 min at RT. • 13. Remove well contents and wash 2× with 200 μL Wash buffer. • 14. Add 150 μL of Wash Buffer per well. Resuspend the beads on a plate shaker for 5 min. • 15. Read on Luminex 100 μl (50 beads per bead set).

The target in the next test is BRD4 BD1 (Homo sapiens (Human), UniProt O60885). Nature of the test: Bromodomain binding assay (T7 phage display, qPCR), BRD4 BD1. The conditions noted are these: for Kd: read-out: BRD4 BD1 Kd. In general terms: Quantitative PCR measures a nucleic acid by following its amplification.
The test system of test [2] is CD4+ T-cells stimulated by CD2, CD3 and CD28 antibodies. Nature of the test: Cellular activity IL-4: reduction of IL-4 levels in activated CD4+ T-cells. The format is cell-based, human. Particulars: Homo sapiens, T-cell. As for the experimental part: • 1. CD4^+ T-cells are isolated from cryopreserved human peripheral blood mononuclear cells (PBMCs) using EasySep™ Kit (Cat. No. 17952, Stemcell Technologies). • 2. CD2, CD3 and CD28 antibodies coated beads from T cell Activation/Expansion Kit (Cat. No. 130-091-441, Miltenyi Biotec) are added to the CD4^+ T-cells at a bead-to-cell ratio of 1:2. • 3. CD4^+ T-cells along with the beads are seeded at 2×10^5 cells/well in a round bottom 96-well plate and treated with different compounds and controls in a total volume of 200 μl. • 4. The cells are cultured for 48 hrs at 37° C., 5% CO2. • 5. Supernatant is collected and IL-4 is analysed by ELISA.

The next test has as its target BRD2(1) (Homo sapiens (Human), UniProt P25440). Nature of the test: Bromodomain binding assay, BRD2(1). The conditions noted are these: single point, screened at 30 times Kd; lower numbers indicate stronger hits. On the procedure:
T7 phage strains displaying bromodomains were grown in parallel in 24-well blocks in an E. coli host derived from the BL21 strain. E. coli were grown to log-phase and infected with T7 phage from a frozen stock (multiplicity of infection=0.4) and incubated with shaking at 32° C. until lysis (90-150 min). The lysates were centrifuged (5,000×g) and filtered (0.2 μm) to remove cell debris. Streptavidin-coated magnetic beads were treated with biotinylated small molecule or acetylated peptide ligands for 30 min at RT to generate affinity resins for bromodomain assays. The ligated beads were blocked with excess biotin and washed with blocking buffer (SeaBlock (Pierce), 1% BSA, 0.05% Tween 20, 1 mM DTT) to remove unbound ligand and to reduce non-specific phage binding. Binding reactions were assembled by combining bromodomains, ligated affinity beads, and test compounds in 1× binding buffer (16% SeaBlock, 0.32×PBS, 0.02% BSA, 0.04% Tween 20, 0.004% Sodium azide, 7.9 mM DTT). Test compounds were prepared as 1000× stocks in 100% DMSO and subsequently diluted 1:25 in MEG. The compounds were then diluted directly into the assays such that the final concentrations of DMSO and MEG were 0.1% and 2.4%, respectively. All reactions were performed in polypropylene 384-well plates in a final volume of 0.02 ml. The assay plates were incubated at RT with shaking for 1 hr and the affinity beads were washed with wash buffer (1×PBS, 0.05% Tween 20). The beads were then re-suspended in elution buffer (1×PBS, 0.05% Tween 20, 2 μM non-biotinylated affinity ligand) and incubated at RT with shaking for 30 min. The bromodomain concentration in the eluates was measured by quantitative polymerase chain reaction (qPCR).
An 11-point 3-fold serial dilution of each test compound was prepared in 100% DMSO at 1000× final test concentration. […] Most dissociation constants were determined using a compound top concentration=10,000 nM. If the initial dissociation constant determined was <0.169 nM (the lowest concentration tested), the measurement was repeated with a serial dilution starting at a lower top concentration. […]

The mark [3] stands for this setting: disease relevant markers, read-out: cellular EC50 values in stimulated human primary keratinocytes.
Setting [4] is: poly I:C 20 μg/mL, 48 hrs, read-out: EC50 reduction of CCL2.
Where [5] appears, read: poly I:C 20 μg/mL, 48 hrs, read-out: EC50 reduction of CCL20.
Setting [6] is: poly I:C 20 μg/mL, 48 hrs, read-out: EC50 reduction of CCL27.
Setting [7] is: poly I:C 20 μg/mL, 48 hrs, read-out: EC50 reduction of CXCL9.
Setting [8] is: poly I:C 20 μg/mL, 48 hrs, read-out: EC50 reduction of GM-CSF.
Where [9] appears, read: poly I:C 20 μg/mL, 48 hrs, read-out: EC50 reduction of IL-1a.
[10] abbreviates: poly I:C 20 μg/mL, 48 hrs, read-out: EC50 reduction of IL-6.
Where [11] appears, read: poly I:C 20 μg/mL, 48 hrs, read-out: EC50 reduction of IL-8.
Where [12] appears, read: poly I:C 20 μg/mL, 48 hrs, read-out: EC50 reduction of TNF-a.
Setting [13] is: poly I:C 20 μg/mL, 48 hrs, read-out: EC50 reduction of TSLP.
Where [14] appears, read: 48 hrs, ELISA, read-out: EC50 reduction of IL-4 levels.
[15] abbreviates: read-out: cellular EC50 values, reduction of IL-4 levels.

Read-outs that look alike come from different tables or passages of the source.

BRD2(1), sequence (P25440 74-180): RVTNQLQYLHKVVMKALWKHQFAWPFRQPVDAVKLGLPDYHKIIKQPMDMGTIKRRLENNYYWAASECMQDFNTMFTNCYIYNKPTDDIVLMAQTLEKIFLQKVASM

With `Cn1cc(-c2c(O)cccc2Oc2ccccc2)c2cc[nH]c2c1=O` [Example 3, 4-(2-hydroxy-6-phenoxyphenyl)-6-methyl-1,6-dihydro-7H-pyrrolo[2,3-c]pyridin-7-one], the EC50 in test [1] (setting [3]) was under 100 nM; in test [1] (setting [4]), at most 10 nM; in test [1] (setting [5]) it was at most 10 nM; in test [1] (setting [6]) it was 10 to 100 nM; in test [1] (setting [7]) it was at most 10 nM; in test [1] (setting [8]), at most 10 nM. Besides, the EC50 in test [1] (setting [9]) was at most 10 nM; in test [1] (setting [10]) it was 10 to 100 nM; in test [1] (setting [11]), at most 10 nM; in test [1] (setting [12]) it was at most 10 nM; in test [1] (setting [13]), at most 10 nM; in test [2] (setting [14]) it was 10 to 100 nM. In addition, the EC50 in test [2] (setting [15]) was under 100 nM. In addition, at BRD4 BD1, the Kd was in the range of 10 to 100 nM.
As for `Cn1cc(-c2cccc(O)c2Oc2ccccc2)c2cc[nH]c2c1=O` [Example 1, 4-(3-hydroxy-2-phenoxyphenyl)-6-methyl-1,6-dihydro-7H-pyrrolo[2,3-c]pyridin-7-one], the EC50 was under 100 nM in test [1] (setting [3]); 10 to 100 nM in test [1] (setting [4]); 10 to 100 nM in test [1] (setting [5]); 10 to 100 nM in test [1] (setting [6]); at most 10 nM in test [1] (setting [7]); at most 10 nM in test [1] (setting [8]). The EC50 in test [1] (setting [9]) was at most 10 nM; in test [1] (setting [10]) it was 10 to 100 nM; in test [1] (setting [11]), at most 10 nM; in test [1] (setting [12]), at most 10 nM; in test [1] (setting [13]), 10 to 100 nM; in test [2] (setting [14]), at most 10 nM. In addition, in test [2] (setting [15]), the EC50 was under 100 nM. Moreover, the Kd at BRD4 BD1 is at most 10 nM. The “BRD4(1) % Ctrl” value on BRD4 BD1 (single point, screened at 30 times Kd, lower numbers indicate stronger hits) amounted to 0 % Ctrl. Besides, on BRD2(1), the “BRD2(1) % Ctrl” value came to 0 % Ctrl.

The EC50 is the midpoint of the concentration-response curve. The term Kd denotes a measure of binding affinity in units of concentration.

The record behind these values is US12384777B2 (Tay Therapeutics Limited, priority 2019, dated 2025).
